This is an account of results in ChEMBL document CHEMBL5247662, “Design, syntheses and biological evaluation of natural product aiphanol derivatives and analogues: Discovery of potent anticancer agents” (Bioorg Med Chem Lett, 2023).

The structures appear in SMILES notation. Where only a bound is given, the exact number is not on record here.

What all share (format): functional, cell-based
The subject of test [1] is HT-29. As to the kind of experiment: Antiproliferative activity against human HT-29 cells assessed as inhibition of cell growth measured after 48 hrs by CCK-8 assay. The following applies: HT-29, 48 h.
The test system of test [2] is HCT-116. The test is described as follows: Antiproliferative activity against human HCT-116 cells assessed as inhibition of cell growth measured after 48 hrs by CCK-8 assay. The conditions noted are these: HCT-116, 48 h. Background: Formazan colour is commonly taken as a measure of viable cells.
Test [3] relates to MCF7. The test is described as follows: Antiproliferative activity against human MCF7 cells assessed as inhibition of cell growth measured after 48 hrs by CCK-8 assay. The following applies: MCF7, 48 h.
Test [4] has as its system SW1990. As to the kind of experiment: Antiproliferative activity against human SW1990 cells assessed as inhibition of cell growth measured after 48 hrs by CCK-8 assay. The following applies: SW1990, 48 h.
For test [5], the system named is HepG2. The test is described as follows: Antiproliferative activity against human HepG2 cells assessed as inhibition of cell growth measured after 48 hrs by CCK-8 assay. The following applies: HepG2, 48 h.
Test [6] deals with KYSE-30. As to the kind of experiment: Antiproliferative activity against human KYSE-30 cells expressing luciferase assessed as inhibition of cell growth measured after 48 hrs by CCK-8 assay. The conditions noted are these: KYSE-30, 48 h.
Test [7] concerns AGS. As to the kind of experiment: Antiproliferative activity against human AGS cells assessed as inhibition of cell growth measured after 48 hrs by CCK-8 assay.
Test [8] relates to Bel-7402. As to the kind of experiment: Antiproliferative activity against human Bel-7402 cells assessed as inhibition of cell growth measured after 48 hrs by CCK-8 assay. The conditions noted are these: Bel-7402, 48 h.

By IC50 is commonly meant the point on the concentration scale where inhibition reaches its midpoint. Take `CCOC(=O)/C=C/c1ccc2c(c1)O[C@@H](c1cc(OC)c(O)c(OC)c1)[C@H](CO)O2`: the IC50 in test [1] and in test [2] was over 50 µM in each case.
Consider `COc1cc([C@@H]2Oc3cc(/C=C/c4ccc(NC(C)=O)cc4)ccc3O[C@H]2CO)cc(OC)c1O`, for which the IC50 in test [1] and in test [2] was over 100 µM throughout.
`COc1cc([C@@H]2Oc3cc(/C=C/c4cc(O)cc(O)c4)ccc3O[C@H]2CN)cc(OC)c1O`: the IC50 in test [1] was 14.1 µM; in test [2], 27 µM.
In the same order, the values of `COc1cc([C@@H]2Oc3cc(/C=C/c4cc(O)cc(O)c4)ccc3O[C@H]2CO[C@@H]2O[C@H](CO)[C@@H](O)[C@H](O)[C@H]2O)cc(OC)c1O` are over 200 µM and over 200 µM.
Consider `COc1cc([C@@H]2Oc3cc(/C=C/c4cc(O)cc(O)c4)ccc3O[C@H]2CNC(=O)S(=O)(=O)c2ccc(C)cc2)cc(OC)c1O`, for which the half-maximal inhibitory concentration (IC50) was found to be 5.89 µM in test [1]; 4.63 µM in test [2]; 6.31 µM in test [3]; 9.65 µM in test [4]; 7.44 µM in test [5]; 17.9 µM in test [6]. Besides, the figures for the IC50 in test [7] and in test [8] were 4.95 µM and 6.29 µM, respectively.
Turning to `COc1cc([C@@H]2Oc3cc(CCc4cc(O)cc(O)c4)ccc3O[C@H]2CO)cc(OC)c1O`, the IC50 in test [1] was 16.4 µM; in test [2] it was 49.8 µM.
In the same order, the values of `COC(=O)c1ccc(/C=C/c2ccc3c(c2)O[C@@H](c2cc(OC)c(O)c(OC)c2)[C@H](CO)O3)cc1` are 10.3 µM and 21.2 µM.
For `COc1cc([C@@H]2Oc3cc(C=O)ccc3O[C@H]2CO)cc(OC)c1O`, the IC50 in test [1] and in test [2] was over 100 µM in each case.
For `OC[C@@H]1Oc2ccc(/C=C/c3cc(O)cc(O)c3)cc2O[C@H]1c1cc(F)c(O)c(F)c1`, the IC50 in test [1] is 41.4 µM; in test [2] it was over 50 µM.
For `COc1cc([C@@H]2Oc3cc(/C=C/c4ccccc4C#N)ccc3O[C@H]2CO)cc(OC)c1O` the same measures were 14.8 µM and 12.4 µM.
For `COc1cc([C@@H]2Oc3cc(/C=C/c4ccc([N+](=O)[O-])cc4)ccc3O[C@H]2CO)cc(OC)c1O` the same measures were 4.63 µM and 7.16 µM.
As for `COc1cc([C@@H]2Oc3cc(/C=C/c4ccc5ccccc5n4)ccc3O[C@H]2CO)cc(OC)c1O`, the IC50 in test [1] was found to be 14.9 µM; in test [2] it was 8.83 µM.
For `OC[C@@H]1Oc2ccc(/C=C/c3cc(O)cc(O)c3)cc2O[C@H]1c1ccc(O)cc1` the same measures were 24.1 µM and over 50 µM.
In the same order, the values of `COc1cc([C@@H]2Oc3cc(/C=C/c4cccc(C#N)c4)ccc3O[C@H]2CO)cc(OC)c1O` are 13.5 µM and 11.4 µM.
In the same order, the values of `COc1cc([C@@H]2Oc3cc(/C=C/c4cc(O)cc(O)c4)ccc3O[C@H]2CNC(=O)c2ccc(C(F)(F)F)cc2)cc(OC)c1O` are 8.84 µM and 11.6 µM.
On to `COc1cc([C@@H]2Oc3cc(/C=C/c4cc(OC(C)=O)cc(OC(C)=O)c4)ccc3O[C@H]2COC(C)=O)cc(OC)c1OC(C)=O`, for which the results for the IC50 in test [1] and in test [2] were 10.4 µM and 19.9 µM, respectively.
In the same order, the values of `COc1cc([C@@H]2Oc3cc(/C=C/c4cc(O)cc(O)c4)ccc3O[C@H]2CNC(=O)C(C)C)cc(OC)c1O` are 13.9 µM and 33.1 µM.
Consider `COc1cc([C@@H]2Oc3cc(/C=C/c4ccc(C(F)(F)F)cc4)ccc3O[C@H]2CO)cc(OC)c1O`, for which the IC50 stood at 25.1 µM in test [1] and 27.2 µM in test [2].
For `COc1cc([C@@H]2Oc3cc(/C=C/c4ccccn4)ccc3O[C@H]2CO)cc(OC)c1O` the same measures were 33 µM and 17.1 µM.
For `OC[C@@H]1Oc2ccc(/C=C/c3cc(O)cc(O)c3)cc2O[C@H]1c1cc(Br)c(O)c(Br)c1` the same measures were 30.5 µM and 39.7 µM.
For `COc1cc([C@@H]2Oc3cc(/C=C/c4cc(O)cc(O)c4)ccc3O[C@H]2CNC(C)=O)cc(OC)c1O` the same measures were 8.52 µM and 47.7 µM.
On to `COc1cc([C@@H]2Oc3cc(/C=C/c4ccc(C#N)cc4)ccc3O[C@H]2CO)cc(OC)c1O`, for which the IC50 in test [1] was 2.42 µM; in test [2] it was 2.02 µM; in test [3] it was 1.21 µM; in test [4], 1.52 µM; in test [5], 2.23 µM; in test [6], 2.97 µM. Further, the IC50 is 0.81 µM in test [7] and 0.86 µM in test [8].
`COc1cc([C@@H]2Oc3ccccc3O[C@H]2CO)cc(OC)c1O`: the IC50 in test [1] and in test [2] was over 100 µM throughout.
With `COc1cc([C@@H]2Oc3cc(/C=C/c4cc(O)cc(O)c4)ccc3O[C@H]2CNC(=O)c2ccc(F)c(F)c2)cc(OC)c1O`, the IC50 in test [1] is 15.6 µM; in test [2], 14.2 µM.
For `COc1cc([C@@H]2Oc3cc(-c4ccccc4)ccc3O[C@H]2CO)cc(OC)c1O` the same measures were 19.1 µM and 16.7 µM.
For `CCCCCCCCCCCCC(=O)NC[C@@H]1Oc2ccc(/C=C/c3cc(O)cc(O)c3)cc2O[C@H]1c1cc(OC)c(O)c(OC)c1`, the results for the concentration for half-maximal inhibition (IC50) in test [1] and in test [2] were 7.7 µM and 14.5 µM, respectively.
With `COc1ccc(C(=O)NC[C@@H]2Oc3ccc(/C=C/c4cc(O)cc(O)c4)cc3O[C@H]2c2cc(OC)c(O)c(OC)c2)cc1`, the half-inhibitory concentration (IC50) amounted to 16.1 µM in test [1] and 15.9 µM in test [2].
For `COc1cc([C@@H]2Oc3cc(/C=C/c4ccccc4)ccc3O[C@H]2CO)cc(OC)c1O`, the concentration for half-maximal inhibition (IC50) in test [1] was 9.14 µM; in test [2], 12.4 µM.
In the same order, the values of `COc1cc([C@@H]2Oc3cc(/C=C/c4cc(O)cc(O)c4)ccc3O[C@H]2CNC(=O)c2ccccc2)cc(OC)c1O` are 19.6 µM and 15.9 µM.
In the same order, the values of `COc1cc([C@@H]2Oc3cc(/C=C/c4ccsc4)ccc3O[C@H]2CO)cc(OC)c1O` are 22.9 µM and 42.2 µM.
Take `COc1cc([C@@H]2Oc3cc(/C=C/c4cc(O)cc(O)c4)ccc3O[C@H]2CNC(=O)c2ccc(F)cc2)cc(OC)c1O`: the IC50 in test [1] stood at 7.9 µM; in test [2], 16.8 µM.
For `COc1cc([C@@H]2Oc3cc(/C=C/c4cc(OC(C)=O)cc(OC(C)=O)c4)ccc3O[C@H]2CO)cc(OC)c1OC(C)=O` the same measures were 7.92 µM and 30.9 µM.
In the same order, the values of `COc1cc([C@@H]2Oc3cc(/C=C/c4ccc(I)cc4)ccc3O[C@H]2CO)cc(OC)c1O` are 25 µM and 28.3 µM.
Turning to `COc1cc([C@@H]2Oc3cc(/C=C/c4cc(O)cc(O)c4)ccc3O[C@H]2CO[C@@H]2O[C@H](CO)[C@H](O)[C@H](O)[C@H]2O)cc(OC)c1O`, the IC50 in test [1] and in test [2] was over 200 µM throughout.
On to `OC[C@@H]1Oc2ccc(/C=C/c3cc(O)cc(O)c3)cc2O[C@H]1c1cc(Cl)c(O)c(Cl)c1`, for which the figures for the IC50 in test [1] and in test [2] were 55.3 µM and over 50 µM, respectively.
In the same order, the values of `COc1cc([C@@H]2Oc3cc(/C=C/c4cc(O)cc(O)c4)ccc3O[C@H]2CNC(=O)c2cc(F)c(F)c(F)c2)cc(OC)c1O` are 7.08 µM and 12.3 µM.
As for `COc1cc([C@@H]2Oc3cc(/C=C/c4cc(O)cc(O)c4)ccc3O[C@H]2CO)cc(OC)c1O`, the IC50 in test [1] is 8.36 µM; in test [2], 20 µM; in test [3], 45.3 µM; in test [4], 28.3 µM; in test [5], 39 µM; in test [6], 61.5 µM. The IC50 in test [7] was found to be 38.9 µM; in test [8], 64.9 µM.
For `COc1cc(/C=C/c2ccc3c(c2)O[C@@H](c2cc(OC)c(O)c(OC)c2)[C@H](CO)O3)cc(OC)c1`, the IC50 in test [1] turned out to be 14 µM; in test [2], 16 µM.
With `COc1cc([C@@H]2Oc3cc(/C=C/c4cc(O)cc(O)c4)ccc3O[C@H]2CNC(=O)S(C)(=O)=O)cc(OC)c1O`, the values for the IC50 in test [1] and in test [2] were 16.5 µM and 29.5 µM, respectively.
As for `COc1cc(C2Oc3cc(/C=C/c4nc(C)c5ccccc5n4)ccc3OC2CO)cc(OC)c1O` (single isomer, unassigned), the figures for the IC50 in test [1] and in test [2] were 4.4 µM and 3.86 µM, respectively.
